Laboratory results: US7718614B2 (Kurume University, priority 2003, dated 2010)
“And” between values parts separate entries of the source, which are not always exact repeats. Identical values can stand only once. “Also recorded” adds a separate entry of the source.

Experiments:
[1] = tested on: peptide-specific IgG; experiment: ELISA of serum IgG specific for the administered peptides, Example 1; assay type: in vivo, human; design: key: −: absent; +: present, low titer; ++: present, high titer; settings: serum of the individual case; for Anti-peptide IgG during the combination therapy, 6th: after 6th vaccination; for Anti-peptide IgG during the combination therapy, 12th: after 12th vaccination; for Anti-peptide IgG during the combination therapy, Pre: before combination therapy; for Anti-peptide IgG during the combination therapy, 18th: after 18th vaccination
[2] = tested on: peptide-specific CTL precursors in PBMCs; experiment: Peptide-specific CTL precursor assay (IFN-γ production of peptide-stimulated PBMCs), Example 1; assay type: cell-based, human; design: key to Cellular response to peptide during the combination therapy, 12th / Cellular response to peptide during the combination therapy, 6th / Cellular response to peptide during the combination therapy, Pre: Ar: p* ≦ 0.1 and 500 ≦ net**; A: p ≦ 0.05 and 50 ≦ net; B: p ≦ 0.05 and 25 ≦ net < 50; C: 0.05 < p < 0.1 and 50 ≦ net; AAAA: all four wells of quadruplicate assay were positive; AAA: three wells of quadruplicate assay were positive; AA: two wells of quadruplicate assay were positive; settings: PBMCs of the individual case; for Cellular response to peptide during the combination therapy, 18th: after 18th vaccination; for Cellular response to peptide during the combination therapy, Pre: before combination therapy, grade of each positive well of quadruplicate IFN-γ assay; for Cellular response to peptide during the combination therapy, 6th: after 6th vaccination; for Cellular response to peptide during the combination therapy, 12th: after 12th vaccination;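 on all read-outs here: PBMCs cultured with each peptide at 10 µM, restimulated at 20 µM every 3 days up to 12 days, then 18 hr with peptide-pulsed target cells, IFN-γ by ELISA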
Experimental: Before the first vaccination and 7 days after every 6th vaccination, 30 ml of peripheral blood was obtained, and PBMCs were isolated by means of Ficoll-Conray density gradient centrifugation. Peptide-specific CTL precursors in PBMCs were detected using a previously reported culture method [24]. Briefly, PBMCs (1×10^5 cells/well) were incubated with 10 μM of each peptide in U-bottom-type 96-well microculture plates (Nunc, Roskilde, Denmark) in 200 μl of culture medium. The culture medium contained 45% RPMI-1640 medium, 45% AIM-V™ medium (Invitrogen Corp., Carlsbad, Calif.), 10% FCS, 100 U/ml of interleukin-2 (IL-2) and 0.1 mM MEM nonessential amino acid solution (Invitrogen Corp.). Half of the medium was removed and replaced with the new medium containing a corresponding peptide (20 μM) every 3 days for up to 12 days. […] The target cells (C1R-A2402 or T2, 1×10^4/well) were pulsed with each peptide (10 μM) for 2 hr, and then effector cells (1×10^5/well) were added to each well with the final volume of 200 μl. After incubation for 18 hr, the supernatants (100 μl) were collected, and the amounts of IFN-γ were measured using an enzyme-linked immuno-sorbent assay (ELISA) (limit of sensitivity: 10 pg/ml). All experiments were performed in the four different wells with duplicate assays. […] Peptides were chosen based upon evaluation of all 4 wells by the order shown above.
Peptide-specific CTL precursors in PBMCs were detected using a previously reported culture method [24], while an ELISA was used to detect the serum IgG levels specific for the peptides administrated, as reported previously [13-15]. […] Namely, PBMCs were harvested every 2 weeks and were cultured (10^4 cells/well) for 2 days in triplicate assays with 10 μl M of phytohemagglutinin (PHA), 10 ng/ml of Epstein-Bar virus (EBV)-derived peptide with HLA-A24 or -A2 binding motif, and 10 ng/ml of two different peptides under vaccination. After 2 days in culture, the amounts of IFN-γ in cell free supernatants were measured in triplicate assays, and viable cell numbers were also counted. To avoid biases in each assay, all the PBMCs were once cryopreserved and the four different PBMCs (two from healthy donors, one from patients PBMCs harvested 2 weeks before the latest vaccination, and one from the latest vaccination) were thawed at the same time in the morning of the experiment. The PBMCs from healthy donors were from the same donors throughout the series of immunological monitoring. Responses (IFN-γ production) to PHA, EBV-peptide, and the vaccinated peptides were considered to be mediated by resting T cells, memory T cells, and activated T cells, respectively.

[3] = tested on: peptide-specific IgG; experiment: ELISA of serum anti-peptide IgG, Example 2; assay type: in vivo, human; design: key: −: absent; +: present, low titer; ++: present, high titer; settings: serum of the individual patient; for Anti-peptide IgG, 6th: after 6th vaccination; for Anti-peptide IgG, Pre: pre-vaccination
Experimental: Peptide-specific CTL precursors in PBMCs were detected using a previously reported culture method, while an ELISA was used to detect the serum IgG levels specific for the peptides administrated, as reported previously. In addition, a new monitoring method was conducted to carefully measure the estramustine-induced immunosuppression. Namely, PBMCs were harvested every 2 weeks and were cultured (10^4 cells/well) for 2 days in triplicate assays with […] of phytohemagglutinin (PHA), 10 ng/ml of Epstein-Bar virus (EBV)-derived peptide with HLA-A24 or -A2 binding motif, and 10 ng/ml of two different peptides under vaccination. After 2 days in culture, the amounts of IFN-γ in cell free supernatants were measured in triplicate assays, and viable cell numbers were also counted. To avoid biases in each assay, all the PBMCs were once cryopreserved and the four different PBMCs (two from healthy donors, one from patients PBMCs harvested 2 weeks before the latest vaccination, and one from the latest vaccination) were thawed at the same time in the morning of the experiment. The PBMCs from healthy donors were from the same donors throughout the series of immunological monitoring. Responses (IFN-γ production) to PHA, EBV-peptide, and the vaccinated peptides were considered to be mediated by resting T cells, memory T cells, and activated T cells, respectively.
Except for the following points, substantially the same approach was employed as Example 1.

[4] = tested on: peptide-specific CTL precursors in PBMCs; experiment: Peptide-specific CTL precursor assay (IFN-γ production), Example 2; assay type: cell-based, human; settings: for Cellular response to peptide, 6th (mean specific IFN-γ production): post(6th)-vaccination PBMCs of the individual patient, * p ≦ 0.05, ** p ≦ 0.10 increased versus pre; for Cellular response to peptide, Pre (mean specific IFN-γ production): pre-vaccination PBMCs of the individual patient, response to HIV peptide subtracted
Experimental: Before the first vaccination and 7 days after every 6th vaccination, 30 ml of peripheral blood was obtained, and PBMCs were isolated by means of Ficoll-Conray density gradient centrifugation. Peptide-specific CTL precursors in PBMCs were detected using a previously reported culture method [24]. Briefly, PBMCs (1×10^5 cells/well) were incubated with 10 μM of each peptide in U-bottom-type 96-well microculture plates (Nunc, Roskilde, Denmark) in 200 μl of culture medium. The culture medium contained 45% RPMI-1640 medium, 45% AIM-V™ medium (Invitrogen Corp., Carlsbad, Calif.), 10% FCS, 100 U/ml of interleukin-2 (IL-2) and 0.1 mM MEM nonessential amino acid solution (Invitrogen Corp.). Half of the medium was removed and replaced with the new medium containing a corresponding peptide (20 μM) every 3 days for up to 12 days. […] The target cells (C1R-A2402 or T2, 1×10^4/well) were pulsed with each peptide (10 μM) for 2 hr, and then effector cells (1×10^5/well) were added to each well with the final volume of 200 μl. After incubation for 18 hr, the supernatants (100 μl) were collected, and the amounts of IFN-γ were measured using an enzyme-linked immuno-sorbent assay (ELISA) (limit of sensitivity: 10 pg/ml). All experiments were performed in the four different wells with duplicate assays.
All patients were vaccinated with up to 4 peptides selected from the 16 candidates by pre-vaccination measurements.

| Sequence | Anti-peptide IgG during the combination therapy, 6th [1] | Anti-peptide IgG during the combination therapy, 12th [1] | Anti-peptide IgG during the combination therapy, Pre [1] | Cellular response to peptide during the combination therapy, 18th [2] | Cellular response to peptide during the combination therapy, Pre [2] | Anti-peptide IgG during the combination therapy, 18th [1] | Cellular response to peptide during the combination therapy, 6th [2] | Cellular response to peptide during the combination therapy, 12th [2] | Anti-peptide IgG, 6th [3] | Anti-peptide IgG, Pre [3] | Cellular response to peptide, 6th (mean specific IFN-γ production) [4] | Cellular response to peptide, Pre (mean specific IFN-γ production) [4] |
| --- | --- | --- | --- | --- | --- | --- | --- | --- | --- | --- | --- | --- |
| ILGELREKV [WHSC2141-] | − | − | − |  |  |  |  |  |  |  |  |  |
| SYTRLFLIL [SART 2899-907] | − | − | − | A (p ≦ 0.05 and 50 ≦ net) | A (p ≦ 0.05 and 50 ≦ net) | − |  |  |  |  |  |  |
| KLVERLGAA [lck246-254] | ++ (4×) and − | ++ (4×) and − | ++ (3×) and − (2×) | ArAAA | A (p ≦ 0.05 and 50 ≦ net) and ArC | − | A (p ≦ 0.05 and 50 ≦ net) | B (p ≦ 0.05 and 25 ≦ net < 50) (2×) and ArAA |  |  |  |  |
| DVWSFGILL [lck422-430] | + (2×) and − (4×) | + (2×) and − (3×) | − (5×) and + | C (0.05 < p < 0.1 and 50 ≦ net); also recorded: ArAAA | A (p ≦ 0.05 and 50 ≦ net); also recorded: Ar (p* ≦ 0.1 and 500 ≦ net**); also recorded: C (0.05 < p < 0.1 and 50 ≦ net) | − | C (0.05 < p < 0.1 and 50 ≦ net) and A (p ≦ 0.05 and AAA | C (0.05 < p < 0.1 and 50 ≦ net) |  |  |  |  |
| RLQEWCSVI [UBE2V43-51] | ++ (3×) and + | ++ | ++ and − (2×) and + |  | AAA and AAAB and ArA |  | ACC and AA | ArArArA; also recorded: A (p ≦ 0.05 and 50 ≦ net); also recorded: C (0.05 < p < 0.1 and 50 ≦ net) |  |  |  |  |
| GLLFLHTRTI [ppMAPkkk294-302] | + and − (2×) and ++ | + and − and ++ | − (3×) and + | ArArAA | A (p ≦ 0.05 and 50 ≦ net) | + and − | C (0.05 < p < 0.1 and 50 ≦ net) | C (0.05 < p < 0.1 and 50 ≦ net) |  |  |  |  |
| NVLHFFNAPL [HNRPL501-510] | ++ and − (2×) and + | ++ (2×) and − | − (3×) and + | ArA | A (p ≦ 0.05 and 50 ≦ net) and ArAr | + | AAA and ArArArAr | ArArAc; also recorded: ArArAr |  |  |  |  |
| LIADFLSGLI [UBE2V85-93] | − | + | − |  |  | + |  | A (p ≦ 0.05 and 50 ≦ net) |  |  |  |  |
| TYSVSFDSL [PSM624] |  |  |  |  |  |  |  |  | + | + | 167 pg/mL | 100 pg/mL |
| VLEGMEVV [CypB172-179] | + | + | − (2×) and + | B (p ≦ 0.05 and 25 ≦ net < 50); also recorded: A (p ≦ 0.05 and 50 ≦ net) | A (p ≦ 0.05 and 50 ≦ net) | + |  | A (p ≦ 0.05 and 50 ≦ net) |  |  |  |  |
| EYCLKFTKL [ART 1170-179] | ++ | ++ | ++ | A (p ≦ 0.05 and 50 ≦ net) | A (p ≦ 0.05 and 50 ≦ net) | ++ | C (0.05 < p < 0.1 and 50 ≦ net); also recorded: A (p ≦ 0.05 and 50 ≦ net) | AAA |  |  |  |  |
| LYCESVHNF [PAP213] |  |  |  |  |  |  |  |  | ++ and + (5×) and − (4×) | + (6×) and − (5×) | 46.8 pg/ml and 850* pg/ml and 0 pg/ml and 186.8** pg/ml and 36.5 pg/ml and 153.5 pg/ml and 622.3* pg/ml and 9.5 pg/ml and 324.3** pg/ml and 32 pg/ml and 392.3* pg/ml | 0 pg/ml (3×) and 30.8 pg/ml and 5.8 pg/ml and 375 pg/ml and 250 pg/ml and 28.8 pg/ml and 80 pg/ml and 14.3 pg/ml and 33.8 pg/ml |
| CYASGWGSI [PSA152] |  |  |  |  |  |  |  |  | − (4×) and + | − (3×) and + (2×) | 34.8 pg/ml and 0 pg/ml (2×) and 18.8 pg/ml and 15.5 pg/ml | 34.5 pg/mL and 39.5 pg/mL and 250 pg/mL and 49.3 pg/mL and 168.8 pg/mL |
| ALVEFEDVL [HNRPL140-148] | ++ | + | − |  | AAC |  |  | ArArArA |  |  |  |  |
| KLKHYGPGWV [CypB129-138] | − | − and + | − |  | A (p ≦ 0.05 and 50 ≦ net) |  | A (p ≦ 0.05 and 50 ≦ net) |  |  |  |  |  |
| EYRGFTQDF [SART1 690] |  |  |  |  |  |  |  |  | + (2×) and − | + and − (2×) | 0 pg/mL and 81.8 pg/mL and 35 pg/mL | 0 pg/mL and 250 pg/mL and 449 pg/mL |
| DLLSHAFFAI [ppMAPkkk432-440] | ++ and − (2×) and + | ++ and + (2×) | + and − (3×) |  | ArA and A (p ≦ 0.05 and 50 ≦ net) | + | C (0.05 < p < 0.1 and 50 ≦ net); also recorded: A (p ≦ 0.05 and 50 ≦ net) |  |  |  |  |  |
| DFMIQGGDF [CyB91-99] | − |  | − |  |  |  | C (0.05 < p < 0.1 and 50 ≦ net) |  |  |  |  |  |
| RIIYDRKFL [EIF4EBP151-59] | − and ++ | − and ++ | − and + | B (p ≦ 0.05 and 25 ≦ net < 50) |  | + |  | A (p ≦ 0.05 and 50 ≦ net) |  |  |  |  |
| RLAEYQAYI [SART 3309-317] | − | − | − | ArAC | A (p ≦ 0.05 and 50 ≦ net) | + | Ar (p* ≦ 0.1 and 500 ≦ net**) | Ar (p* ≦ 0.1 and 500 ≦ net**) |  |  |  |  |
| ASLDSDPWV [WHSC2103-111] | − |  | − |  |  |  |  |  |  |  |  |  |
